Data taken from patent publication EP4603105A1, “PHARMACEUTICAL COMPOSITION CONTAINING CYCLIC COMPOUND HAVING SELECTIVE KRAS INHIBITORY EFFECT AGAINST HRAS AND NRAS” (CHUGAI SEIYAKU KABUSHIKI KAISHA, priority 2022, dated 2024).
*1 amine or outer side, *2 acyl side, *3 side chain or, on linkers, in order; H or OH if unused. Where a SMILES comes first, the peptide text is derived from it. Bridges are numbered along the chain shown (N, C = ends). [ ]: non-standard residue; d: D form. The star is where a group is joined. hPhe(3-Cl-4-CF3) = N[C@@H](CCc1ccc(C(F)(F)F)c(Cl)c1)C(=O)O; NPrPhe(4-CF3) = CCCN[C@@H](Cc1ccc(C(F)(F)F)cc1)C(=O)O; Abu(4,4,4-F3) = N[C@@H](CC(F)(F)F)C(=O)O; NMeGly(cPent) = CN[C@H](C(=O)O)C1CCCC1; X9 = CC1(C)CN([*:1])[C@@H]1C(=O)[*:2]; NMeD = CN[C@@H](CC(=O)O)C(=O)O; NMeL = CN[C@@H](CC(C)C)C(=O)O; hPip = O=C(O)[C@@H]1CCCCCN1; Pip = O=C(O)[C@@H]1CCCCN1; Morpholide = C1CN(*)CCO1; Ac5c = NC1(C(=O)O)CCCC1; Aze = O=C(O)[C@@H]1CCN1; Abu = CC[C@H](N)C(=O)O; NEtG = CCNCC(=O)O; Sar = CNCC(=O)O

How the values were obtained:
[1] = biological target: GDP-bound KRAS wild-type protein (Homo sapiens, UniProt P01116); assay: Binding to KRAS by surface plasmon resonance (SPR), dissociation constant KD; conditions: 1:1 binding model
Sequence of GDP-bound KRAS wild-type protein (P01116 1-188 isoform P01116-2): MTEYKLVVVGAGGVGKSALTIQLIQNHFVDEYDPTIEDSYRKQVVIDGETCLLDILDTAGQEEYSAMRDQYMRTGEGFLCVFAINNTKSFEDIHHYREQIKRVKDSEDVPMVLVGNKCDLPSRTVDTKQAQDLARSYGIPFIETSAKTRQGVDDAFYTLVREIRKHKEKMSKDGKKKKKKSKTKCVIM
In short: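 Compound binding is evaluated by SPR single-cycle kinetics, with concentrations added intermittently from low to high for 75 s each. Target surfaces carry GDP-loaded biotinylated Avi-RAS at about 100–300 RU, regenerated after each cycle; temperature 30°C. A 1:1 binding model gives KD.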

[2] = biological target: GDP-bound NRAS wild-type protein (Homo sapiens, UniProt P01111); assay: Binding to NRAS by surface plasmon resonance (SPR), KD and KD ratio to KRAS; conditions: ratio of KD for GDP-bound NRAS wild-type protein to KD for KRAS
Sequence of GDP-bound NRAS wild-type protein (P01111 whole entry): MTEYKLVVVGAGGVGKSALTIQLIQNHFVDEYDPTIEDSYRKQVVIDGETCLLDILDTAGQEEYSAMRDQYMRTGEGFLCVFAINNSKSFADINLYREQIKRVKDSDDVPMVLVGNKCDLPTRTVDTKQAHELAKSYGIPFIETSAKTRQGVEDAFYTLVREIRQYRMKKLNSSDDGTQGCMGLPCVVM
In short: (§1)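 Recombinant RAS proteins bearing a biotinylated Avi tag and loaded with GDP served as the captured ligand, recaptured fresh every cycle. Binding responses were referenced to an uncoated surface and a buffer-only blank cycle. Dissociation constants were obtained by 1:1 model fitting at 30°C.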

[3] = system: human lung cancer strain NCI-H441; format: cell-based
In short: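 Signal came from […] measured per well once the reagent was added. Beforehand, cells were cultured at 37°C and 5% carbon dioxide on a compound series serially diluted in dimethyl sulfoxide.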

HRAS wild-type protein = HRAS wild-type protein (Homo sapiens, UniProt P01112); assay: Binding to HRAS by surface plasmon resonance (SPR), KD and KD ratio to KRAS; conditions: ratio of KD for HRAS wild-type protein to KD for KRAS
Sequence of HRAS wild-type protein (P01112 whole entry): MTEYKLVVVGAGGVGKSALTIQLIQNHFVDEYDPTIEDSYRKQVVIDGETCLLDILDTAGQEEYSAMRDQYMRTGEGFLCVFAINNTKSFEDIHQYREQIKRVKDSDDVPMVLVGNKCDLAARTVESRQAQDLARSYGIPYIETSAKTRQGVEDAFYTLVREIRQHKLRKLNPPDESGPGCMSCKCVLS
In short: as §1

| Structure (SMILES) | Kd [1] [nM] | NRAS /KRAS [2] | IC50 [3] [nM] | HRAS /KRAS (HRAS wild-type protein) |
| --- | --- | --- | --- | --- |
| CCCN1C(=O)[C@@H]2CCN2C(=O)[C@H]2N(CC2(C)C)C(=O)[C@H]([C@@H](C)CC)NC(=O)[C@H](CC(C)C)N(C)C(=O)C[C@@H](C(=O)N2CCOCC2)N(C)C(=O)[C@H](C2CCCC2)N(C)C(=O)C2(CCCC2)NC(=O)[C@@H]2CCCN2C(=O)[C@H](CCc2ccc(C(F)(F)F)c(Cl)c2)NC(=O)CN(C)C(=O)[C@@H]1Cc1ccc(C(F)(F)F)cc1 [PP0277] ([NMeL]I[X9][Aze][NPrPhe(4-CF3)][Sar][hPhe(3-Cl-4-CF3)]P[Ac5c][NMeGly(cPent)][NMeD]-Morpholide; lactam N-11) | 0.53 | C (A compound having a KD ratio of 0.1 or more and less than 3 is denoted as C) | 6.7 | C (A compound having a KD ratio of 0.1 or more and less than 3 is denoted as C) |
| CCCN1C(=O)CN(C)C(=O)CN(CC)C(=O)[C@H]([C@@H](C)CC)NC(=O)[C@H](CC(C)C)N(C)C(=O)C[C@@H](C(=O)N2CCOCC2)N(C)C(=O)[C@H](C2CCCC2)N(C)C(=O)C2(CCCC2)NC(=O)[C@@H]2CCCCN2C(=O)[C@H](CCc2ccc(C(F)(F)F)c(Cl)c2)NC(=O)CN(C)C(=O)[C@@H]1Cc1ccc(C(F)(F)F)cc1 [PP0297] ([NMeL]I[NEtG][Sar][NPrPhe(4-CF3)][Sar][hPhe(3-Cl-4-CF3)][Pip][Ac5c][NMeGly(cPent)][NMeD]-Morpholide; lactam N-11) | 2.3 | B (a compound having 3 or more and less than 10 is denoted as B) | 74.3 | C (A compound having a KD ratio of 0.1 or more and less than 3 is denoted as C) |
| CCCN1C(=O)CN(C)C(=O)[C@@H]2CCN2C(=O)[C@H]([C@@H](C)CC)NC(=O)[C@@H]2CCCCCN2C(=O)C[C@@H](C(=O)N2CCOCC2)N(C)C(=O)[C@H](C2CCCC2)N(C)C(=O)C2(CCCC2)NC(=O)[C@@H]2CCCN2C(=O)[C@H](CCc2ccc(C(F)(F)F)c(Cl)c2)NC(=O)CN(C)C(=O)[C@@H]1Cc1ccc(C(F)(F)F)cc1 [PP0302] ([hPip]I[Aze][Sar][NPrPhe(4-CF3)][Sar][hPhe(3-Cl-4-CF3)]P[Ac5c][NMeGly(cPent)][NMeD]-Morpholide; lactam N-11) | 1.6 | B (a compound having 3 or more and less than 10 is denoted as B) | 126 | C (A compound having a KD ratio of 0.1 or more and less than 3 is denoted as C) |
| CCCN1C(=O)CN(C)C(=O)[C@@H]2CCN2C(=O)[C@H](CC)NC(=O)[C@H](CC(C)C)N(C)C(=O)C[C@@H](C(=O)N2CCOCC2)N(C)C(=O)[C@H](C2CCCC2)N(C)C(=O)C2(CCCC2)NC(=O)[C@@H]2CCCN2C(=O)[C@H](CCc2ccc(C(F)(F)F)c(Cl)c2)NC(=O)CN(C)C(=O)[C@@H]1Cc1ccc(C(F)(F)F)cc1 [PP0303] ([NMeL][Abu][Aze][Sar][NPrPhe(4-CF3)][Sar][hPhe(3-Cl-4-CF3)]P[Ac5c][NMeGly(cPent)][NMeD]-Morpholide; lactam N-11) | 4 | B (a compound having 3 or more and less than 10 is denoted as B) | 349 | B (a compound having 3 or more and less than 10 is denoted as B) |
| CCCN1C(=O)CN(C)C(=O)[C@@H]2CCN2C(=O)[C@H](CC(F)(F)F)NC(=O)[C@H](CC(C)C)N(C)C(=O)C[C@@H](C(=O)N2CCOCC2)N(C)C(=O)[C@H](C2CCCC2)N(C)C(=O)C2(CCCC2)NC(=O)[C@@H]2CCCN2C(=O)[C@H](CCc2ccc(C(F)(F)F)c(Cl)c2)NC(=O)CN(C)C(=O)[C@@H]1Cc1ccc(C(F)(F)F)cc1 [PP0304] ([NMeL][Abu(4,4,4-F3)][Aze][Sar][NPrPhe(4-CF3)][Sar][hPhe(3-Cl-4-CF3)]P[Ac5c][NMeGly(cPent)][NMeD]-Morpholide; lactam N-11) | 1.9 | B (a compound having 3 or more and less than 10 is denoted as B) | 112 | B (a compound having 3 or more and less than 10 is denoted as B) |
